Like-named read-outs stand apart in the source and are kept apart here.
What was measured:
[1] = tested on: E.f987; assay: Antibacterial screening (MIC) of compounds of Example 2, E.f987; format: cell-based, Enterococcus faecium; conditions: for MIC: Enterococcus faecium, read-out: Antibacterial activity μg/mL, E.f987
[2] = tested on: E.f243; assay: Antibacterial screening (MIC) of compounds of Example 2, E.f243; format: cell-based, Enterococcus faecium; conditions: for MIC: Enterococcus faecium, read-out: Antibacterial activity μg/mL, E.f243
Method: (§1) • All assays used the Staphylococcus aureus strain ATCC 6538P. • Assays described in Chapter 5 additionally used the vancomycin-resistant enterococci and vancomycin-sensitive enterococci strains Ef243, Ef449, Ef820 and Ef487. Culture Media • Mueller-Hinton Broth Medium (MHB): MHB (Oxoid CM405) was prepared with final concentrations of […] MgCl2 and 2 μg/mL CaCl2. Culture medium was pre-warmed for approximately 2-3 h at 37° C. before use. • Mueller-Hinton Agar Medium (MHA): MMB containing 1.5% Agar (Merck Agar 1.01614). Maintenance of Bacteria • From a thawed cryovial, the bacteria was streaked onto MHA and the plate incubated overnight at 37° C. • From this plate, 10 cryovials were prepared by looping several colonies into 0.5 mL of 20% glycerol solution. The cryovials were immediately stored at −140° C. Preparation of Seed Cultures • A cryovial was removed from −140° C. storage and thawed at room temperature. • An MHA plate was streaked with a loopful of bacterial suspension and incubated overnight at 37° C. to create a parent plate (P1). • A daughter plate (D1) was streaked from the parent plate and incubated overnight at 37° C. […] The second parent plate (P2) was used to generate two additional daughter plates using the procedure outlined above before being discarded. • Cryovials were used twice to prepare parent plates (P1 and P2) before being discarded. […] A vancomycin control set (triplicate) and a compound negative control set (triplicate) were also included on each plate (FIG. 1). • The inoculated culture medium was incubated at 37° C. for 30 min, with shaking at 130 rpm. • Using a multichannel pipette, the contents of the first row were mixed before 50 μL was transferred to the second row. The pipette tips were changed and the process repeated by 50 μL of the mixed broth solutions in the second row being transferred to the third row. This process was repeated until the last row contained either the diluted test compound or a control (vancomycin or compound-negative). […] Antibacterial Testing of Compounds of Example 2 Introduction
(§2) The specific testing procedures and protocols are outlined in the section “Antibacterial Screening Methodology for the Compounds of Example 2”.
(§3) Vancomycin was used as the standard/control.

[3] = tested on: Staphylococcus aureus strain ATCC 6538P; assay: Antibacterial screening (MIC) of compounds of Example 2, S. aureus, Mueller-Hinton broth; format: cell-based; conditions: for MIC: Staphylococcus aureus, ATCC6538P, read-out: Antibacterial activity μg/mL, S.a
Method: Antibacterial Screening Methodology for Compounds of Example 2
as §1, §2
The antibacterial activity results are measured by minimum inhibitory concentration (MIC), which is the lowest concentration of compound necessary to prevent bacterial growth.

[4] = tested on: E.f820; assay: Antibacterial screening (MIC) of compounds of Example 2, E.f820; format: cell-based, Enterrococci faecium; conditions: for MIC: read-out: Antibacterial activity μg/mL, E.f820
Method: as §1, §2, §3

[5] = tested on: E.f449; assay: Antibacterial screening (MIC) of compounds of Example 2, E.f449; format: cell-based, Enterococcus faecium; conditions: for MIC: Enterococcus faecium, read-out: Antibacterial activity μg/mL, E.f449
Method: as §1, §2, §3

[6] = Example 2 compounds, enterococci strain E.f987
[7] = Example 2 compounds, enterococci strain E.f243
[8] = Example 2 compounds (linear cationic peptides), S. aureus, vancomycin-susceptible strain
[9] = Example 2 compounds, fully vancomycin-resistant strain E.f820
[10] = Example 2 compounds, enterococci strain E.f449

| SMILES | MIC [1, 6] [µg/mL] | MIC [2, 7] [µg/mL] | MIC [3, 8] [µg/mL] | MIC [4, 9] [µg/mL] | MIC [5, 10] [µg/mL] | also measured |
| --- | --- | --- | --- | --- | --- | --- |
| CCCOc1ccc2ccccc2c1-c1c(OCC(=O)N[C@H](CCCCN)C(=O)N[C@H](CCCNC(=N)N)C(=O)N[C@@H](CCC)C(=O)OCc2ccccc2)ccc2ccccc12.Cl.Cl (atropisomer, axis not shown) [Compound 141, Benzyl(2S,5R,8R)-3,6,9-triaza-8-(4-aminobutyl)-5-(3-guanidinopropyl)-4,7,10-trioxo-2-propyl-11-(2-[2′-3-(propyloxy)-{1,1′}-(S)-binaphthalen-2-yloxy])undecanoate] | 62.5 | 31.3 | 3.9 | 31.2 | 31.3 |  |
| C=CCOc1ccc2ccccc2c1-c1c(OCC(=O)N[C@H](CCCNC(=N)N)C(=O)Nc2cccc(C(=O)OC)c2)ccc2ccccc12.Cl (atropisomer, axis not shown) [Compound 156, Methyl(3R)-3-(6-(2-[2′-allyloxy-{1,1′}-(S)-binaphthalen-2-yloxy])-1,4-diaza-3-(3-guanidylpropyl)-2,5-dioxohexyl)benzoate hydrochloride] | 62.5 | 125 | 3.9 | 62.5 | 125 |  |
| C=CCOc1ccc2ccccc2c1-c1c(OCC(=O)N[C@H](CCCNC(=N)N)C(=O)Nc2cccc(C(=O)OCc3ccccc3)c2)ccc2ccccc12.Cl (atropisomer, axis not shown) [Compound 158, Benzyl(3R)-3-(6-(2-[2′-allyloxy-{1,1′}-(S)-binaphthalen-2-yloxy])-1,4-diaza-3-(3-guanidylpropyl)-2,5-dioxohexyl)benzoate hydrochloride] | 62.5 | 62.5 | 7.8 | 31.3 | 62.5 |  |
| C=CCOC(=O)c1cccc(NC(=O)[C@@H](CCCNC(=N)N)NC(=O)COc2ccc3ccccc3c2-c2c(OCC=C)ccc3ccccc23)c1.Cl (atropisomer, axis not shown) [Compound 160, Allyl(3R)-3-(6-(2-[2′-allyloxy-{1,1′}-(S)-binaphthalen-2-yloxy])-1,4-diaza-3-(3-guanidinopropyl)-2,5-dioxohexyl)benzoate hydrochloride] | 125 | 62.5 | 7.8 | 62.5 | 62.5 |  |
| C=CCOc1ccc2ccccc2c1-c1c(OCC(=O)N[C@H](CCCNC(=N)N)C(=O)Nc2cccc(C(=O)NOCc3ccccc3)c2)ccc2ccccc12.Cl (atropisomer, axis not shown) [Compound 162] | > 125 | > 125 | 3.9 | > 125 | > 125 |  |
| CCCOc1ccc2ccccc2c1-c1c(OCC(=O)N[C@H](CCCNC(=N)N)C(=O)Nc2cccc(C(=O)NO)c2)ccc2ccccc12.Cl (atropisomer, axis not shown) [Compound 164] | > 125 | > 125 | 7.8 | > 125 | > 125 |  |
| C=CC[C@H](NC(=O)[C@H](CCCCN)NC(=O)[C@H](Cc1ccc(-c2c3ccccc3cc3ccccc23)cc1)NC(C)=O)C(=O)OC.Cl [Compound 118, Methyl(2S,5S,8S)-2-allyl-5-(4-aminobutyl)-8-(4-[9-anthrecenyl]benzyl)-3,6,9-triaza-5-butylamino-4,7,10-trioxoundecanoate hydrochloride] | > 125 | > 125 | 31.3 | > 125 | > 125 |  |
| C=CC[C@H](NC(=O)[C@H](CCCCN)NC(=O)[C@H](Cc1ccc(-c2cc3ccccc3c3ccccc23)cc1)NC(C)=O)C(=O)OC.Cl [Compound 119] | > 125 | > 125 | 15.6 | > 125 | > 125 |  |
| C=CC[C@H](NC(=O)[C@@H](CCCNC(=N)N)NC(=O)[C@H](NCCCC)NC(=O)COc1ccc2ccccc2c1-c1c(OCc2ccccc2)ccc2ccccc12)C(=O)OCc1ccccc1.Cl.Cl [Compound 134, Benzyl(2S,5R,8R)-2-allyl-3,6,9-triaza-11-(2-[2′-benzyloxy-{1,1′}-(S)-binaphthalen-2-yloxy])-8-(butylamino)-5-(3-guanidinopropyl)-4,7,10-trioxoundecanoate dihydrochloride] |  |  |  |  |  | Antibacterial activity μg/mL, E.f987 [1, 6]: 125 µg/mL; Antibacterial activity μg/mL, E.f243 [2, 7]: 62.5 µg/mL; Antibacterial activity μg/mL, S.a [3, 8]: 3.9 µg/mL; Antibacterial activity μg/mL, E.f820 [4, 9]: 62.5 µg/mL; Antibacterial activity μg/mL, E.f449 [5, 10]: 62.5 µg/mL |
| C=CC[C@H](NC(=O)[C@@H](CCCNC(=N)N)NC(=O)[C@@H](CCCCN)NC(=O)[C@H](Cc1ccc(-c2c3ccccc3cc3ccccc23)cc1)NC(C)=O)C(=O)OCc1ccccc1.Cl.Cl [Compound 139, Benzyl(2S,5R,8R,11S)-2-allyl-8-(4-aminobutyl)-11-(4-[9-anthracenyl]benzyl)-3,6,9,12-tetraaza-5-(3-guanidinopropyl)-4,7,10,13-tetraoxotetradecanoate] | > 125 | > 125 | 15.6 | > 125 | > 125 |  |
| C=CC[C@H](NC(=O)[C@@H](CCCNC(=N)N)NC(=O)[C@@H](CCCCN)NC(=O)[C@H](Cc1ccc(-c2cc3ccccc3c3ccccc23)cc1)NC(C)=O)C(=O)OCc1ccccc1.Cl.Cl [Compound 140, Benzyl(2S,5R,8R,11S)-2-allyl-8-(4-aminobutyl)-3,6,9,12-tetraaza-5-(3-guanidinopropyl)-4,7,10,13-tetraoxo-11-(4-[9-phenanthrenyl]benzyl)tetradecanoate] |  |  |  |  |  | MIC [1]: > 125 µg/mL; MIC [2]: > 125 µg/mL; MIC [3]: 7.8 µg/mL; MIC [4]: > 125 µg/mL; MIC [5]: > 125 µg/mL |
| C=CCOc1ccc2ccccc2c1-c1c(OCC(=O)N[C@H](CCCN)C(=O)Nc2cccc(C(=O)OC)c2)ccc2ccccc12.Cl [Compound 155, Methyl(3R)-3-(6-(2-[2′-allyloxy-{1,1′}-(S)-binaphthalen-2-yloxy])-3-(3-aminopropyl)-1,4-diaza-2,5-dioxohexyl)benzoate hydrochloride] |  |  |  |  |  | Antibacterial activity μg/mL, E.f987 [1, 6]: >125 µg/mL; Antibacterial activity μg/mL, E.f243 [2, 7]: >125 µg/mL; Antibacterial activity μg/mL, S.a [3, 8]: 7.8 µg/mL; Antibacterial activity μg/mL, E.f820 [4, 9]: 125 µg/mL; Antibacterial activity μg/mL, E.f449 [5, 10]: 125 µg/mL |
| C=CCOc1ccc2ccccc2c1-c1c(OCC(=O)N[C@H](CCCN)C(=O)Nc2cccc(C(=O)OCc3ccccc3)c2)ccc2ccccc12.Cl [Compound 157, Benzyl(3R)-3-(6-(2-[2′-allyloxy-{1,1′}-(S)-binaphthalen-2-yloxy])-3-(3-aminopropyl)-1,4-diaza-2,5-dioxohexyl)benzoate hydrochloride] |  |  |  |  |  | Antibacterial activity μg/mL, E.f987 [1, 6]: >125 µg/mL; Antibacterial activity μg/mL, E.f243 [2, 7]: >125 µg/mL; Antibacterial activity μg/mL, S.a [3, 8]: 15.6 µg/mL; Antibacterial activity μg/mL, E.f820 [4, 9]: 125 µg/mL; Antibacterial activity μg/mL, E.f449 [5, 10]: 125 µg/mL |
| C=CCOC(=O)c1cccc(NC(=O)[C@@H](CCCN)NC(=O)COc2ccc3ccccc3c2-c2c(OCC=C)ccc3ccccc23)c1.Cl [Compound 159, Allyl(3R)-3-(6-(2-[2′-allyloxy-{1,1′}-(S)-binaphthalen-2-yloxy])-3-(3-aminopropyl)-1,4-diaza-2,5-dioxohexyl)benzoate hydrochloride] |  |  |  |  |  | Antibacterial activity μg/mL, E.f987 [1, 6]: >125 µg/mL; Antibacterial activity μg/mL, E.f243 [2, 7]: 125 µg/mL; Antibacterial activity μg/mL, S.a [3, 8]: 62.5 µg/mL; Antibacterial activity μg/mL, E.f820 [4, 9]: 62.5 µg/mL; Antibacterial activity μg/mL, E.f449 [5, 10]: 125 µg/mL |
